{"source": "patent US9011853B2", "about": "“B7-H4 fusion proteins and methods of use thereof” (Amplimmune, Inc., priority 2009, dated 2015)", "key": {"[1]": {"system": "naïve CD4^+CD62L^+ T cells", "test": "In vitro Th2 polarization, proliferation", "type": "cell-based, mouse", "settings": "Th2 conditions: IL-2, IL-4, anti-IL12 and anti-IFN-γ (FIG. 23)", "from_the_text": "B7-H4-Ig has no impact on Th2 cells using the same target, naïve CD4^+CD62L^+ T cells, under Th2 in vitro polarization conditions: IL-2, IL-4, anti-IL12 and anti-IFN-γ (FIG. 23)."}, "[2]": {"system": "lymph node cells and splenocytes", "test": "In vitro antigen-specific recall responses of cells from treated R-EAE mice", "type": "in vivo, mouse", "experimental": "Draining lymph nodes (axillary, brachial, and inguinal) were harvested, and single cell suspensions were obtained by mashing through sterile 60-mesh wire screens. In 96-well microtiter plates, 5×10^5 erythrocyte-free (Tris-NH4Cl-treated) lymph node cells per well were incubated in supplemented culture medium with or without antigen at 37° C. in 7% CO2 for […] and then pulsed with 1 μCi/well of [^3H]-Thymidine for the final 48 h of culture. Proliferation was determined by uptake of [^3H]-Thymidine detected using a Topcount Microplate Scintillation Counter (Packard Instruments, Meridan, Conn.). Results are expressed as the mean of triplicate cultures from individual animal±SEM. Supernatants were collected at 72 hr for cytokine analysis. Cytokine measurements were performed using the Mouse Cytokine 10-Plex system and Luminex Liquidchip analyzer (Qiagen, Valencia, Calif.) or ELISA.\nLymph nodes were isolated from the murine B7-H4-Ig and Control IgG injected EAE mice as described above. T cells were harvested and were elicited with PLP139-151, the disease inducing dominant epitope, and PLP178-191, the spread epitope-specific peptide, in vitro. [^3H]-thymidine was added to the in vitro stimulation assay to analyze T cell proliferation.\nLymph nodes were isolated from Control IgG and murine B7-H4-Ig treated mice as described above. T cells were harvested and immune responses were elicited with PLP139-151, the disease inducing dominant peptide, and PLP178-191, the spread epitope peptide, in vitro. Supernatant was collected and analyzed for IFN-γ via commercially available ELISA kit.\nDraining lymph nodes were harvested from the animals, and single cell suspensions prepared as described above and reactivated in vitro in the presence of anti-CD3 (0.1-10 μg/mL), PLP139-151 (1-20 μg/mL), or OVA323-339 (1-20 μg/mL). T cell proliferation in vitro was analyzed by [^3H] thymidine incorporation.\nThe impact of B7-H4-Ig treatment on epitope spreading was also examined. To do so, spleens and draining lymph nodes were collected from the same mice that were analyzed for the number and phenotype of CD4^+ T cells. SJL mouse were immunized with 50 μg of PLP139-151 peptide emulsified in CFA. Mice were treated B7-H4-Ig during remission: 60 or 100 ug per dose, 3 doses/wk, for 2 weeks (6 doses). On Day 35 total splenocytes and lymph node cells (5×10^5 cells per 200 ul culture) were activated in separate wells per mouse in the presence of anti-CD3 (1 ug/ml), PLP139-151 or PLP178-191 (20 μg/mL). At 24 hours following the initiation of culture, 1 μCi of ^3[H] tritiate thymidine was added to each well and wells were analyzed at 72 hours post the initiation of culture. This presented as the mean CPM. […] Therefore, B7-H4-Ig treatment during remission of ongoing R-EAE in SJL mice appears to decrease epitope spreading via an increase in the number of Treg cells. […] The higher dose appears more efficacious to lower the disease score at later time points (beyond Day 42 post disease initiation)."}, "[3]": {"test": "Clearance from circulation", "type": "in vivo", "settings": "compared with control IgG"}, "[4]": {"system": "CD4^+ T cells, Treg cells, effector/memory CD4^+ T cells", "test": "T cell subsets in spleen, draining lymph nodes and CNS of R-EAE mice (FACS, immunochemical staining)", "type": "in vivo, mouse", "from_the_text": "Mice were anesthetized with nembutal and perfused with phosphate-buffered saline (PBS). Brains and spinal cords from each mouse were frozen in OCT (Miles Laboratories; Elkhart, Ind.) in liquid nitrogen. Tissue from the lower lumbar region of the spinal cord was sectioned at 6 μm on a Reichert-Jung 1800 cryotome and mounted on Superfrost Plus electrostatically charged slides. Cross-sections (10 μm thick for brains and 6 μm for spinal cords) from longitudinal sections of brain and spinal cord were performed. Tissues were stained with biotin-conjugated antibody to mouse CD4, PLP and FoxP3. Positive staining of biotinylated antibodies was visualized by a Tyramide Signal Amplification (TSA) Direct kit (NEN, Boston, Mass.) according to manufacturer's instructions and fluorescein anti-mouse IgG (Vector Laboratories). Sections were counterstained with 4,6-diamidino-2-phenylindole (DAPI; Sigma-Aldrich) and then coverslipped with Vectashieldmounting medium (Vector Laboratories). Slides were examined and images were acquired via epifluorescence using the SPOT RT camera (Diagnostic Instruments, Sterling Heights, Mich.). Sections from each group were analyzed at 40 or 100× magnification.\nThe effect of B7-H4-Ig treatment on the number of Treg cells in vivo was analyzed in this study. The effect of B7-H4-Ig on the number and phenotype of CD4^+ T cells infiltrating into the CNS following B7-H4-Ig treatment, the relevant site for activity in vivo, was determined. […] SJL mice were first immunized with PLP139-151 peptide. B7-H4-Ig treatment started during remission (Day 23). Mice received mouse Control IgG, 100 μg, or B7-H4-Ig at either 60 or 300 μg, 3 times per week for 2 weeks or 4 weeks. Half of the animals (5 mice from each group) were euthanized on Day 35, after 6 doses of B7-H4-Ig. The rest of the animals (5 mice from each group) were euthanized on Day 50, after 12 doses of B7-H4-Ig. Mouse spleens, draining lymph nodes, spinal cords and brains were collected, tissues were made into a single cell suspension and counted via the use of a hemocytometer, and analyzed for the presence of effector/memory CD4^+ T cells (CD4^+CD44^+) and Treg cells (CD4^+CD25^+FoxP3^+). Whole cerebellar and lumbar spinal cord tissue samples were snap frozen and processed as described above to analyze the number of CD4^+ and FoxP3^+ cells present within the CNS by histology.\nCells isolated from spleen, draining lymph node and also lumbar spinal cord were stained for CD4, CD44 and FoxP3 followed by FACS analysis to obtain the number of total CD4^+ T cells, Treg (CD4^+/Foxp3^+) and effector/memory CD4^+ T cells (CD4^+/CD44^+). The data is presented in FIGS. 43A, 43B, and 43C as the mean number of cells for each phenotype from individual mouse. […] Similar data was obtained after the full course of 12 treatments."}, "[5]": {"settings": "Day 35 splenocytes and lymph node cells, treated during remission 60 or 100 ug per dose, 3 doses/wk, 2 weeks (FIGS. 45A, 45B)"}}, "data": [{"substance": "B7-H4-Ig: B7-H4 extracellular domain fused to Ig Fc; bare label is the human protein in Example 3, murine protein in Examples 1, 2, 5, 7-11", "values": [{"measurement": "impact on Th2 cells (proliferation)", "setting": "[1]", "value": "no impact"}, {"measurement": "proliferative response to PLP139-151", "setting": "[2]; [5]", "value": "decreased the proliferative response"}, {"measurement": "proliferative response to PLP178-191", "setting": "[2]; [5]", "value": "decreased the proliferative response"}, {"measurement": "IFN-γ production in ex vivo T cell recall with PLP139-151 peptide", "setting": "[2]; administered on Day 0 (FIG. 38)", "value": "specific inhibition of immune response to PLP139-151 peptide"}, {"measurement": "T cell proliferation when stimulated with anti-CD3", "setting": "[2]; draining lymph nodes, Day 10 study (FIG. 40)", "value": "robust T cell proliferation"}, {"measurement": "T cell response to PLP139-151 peptide stimulation ([3H] thymidine)", "setting": "[2]; draining lymph nodes, Day 10 study, both 3 and 15 mg/kg doses (FIG. 40)", "value": "little to no response"}, {"measurement": "clearance from circulation", "setting": "[3]", "value": "cleared from circulation more rapidly than control IgG"}, {"measurement": "amount of Treg cells in the CNS", "setting": "[4]; FIG. 43C", "value": "appeared constant"}, {"measurement": "number of Treg (CD4+/FoxP3+) cells within the spleen and lymph node", "setting": "[4]; R-EAE mice treated during remission (FIGS. 43A, 43B)", "value": "remarkably increased"}, {"measurement": "level of demyelination via anti-PLP staining", "setting": "[4]; control IgG vs B7-H4-Ig treated mice", "value": "no significant difference in the level of demyelination"}, {"measurement": "number of FoxP3+ cells within the CNS (histology)", "setting": "[4]; lumbar spinal cord cross sections", "value": "increases the number of FoxP3^+ cells within the CNS"}, {"measurement": "percentage of Treg cells among CD4+ T cells in the CNS", "setting": "[4]; vs Control IgG injected mice (FIG. 44)", "value": "significantly higher"}, {"measurement": "effector/memory T cells (CD4+/CD44+) within the CNS", "setting": "[4]; vs Control IgG treated mice (FIG. 43C)", "value": "decreased"}]}]}
